Measured values reported in patent US9440982B2 (Eolas Therapeutics, Inc., priority 2012, dated 2016).
pIC50: −log10 of the molar value.

Experiments:
[1] = target: T1, CYP3A4 (Homo sapiens, UniProt P08684); experiment: Cytochrome P450 inhibition assay (midazolam hydroxylation); assay type: in vitro ADME; conditions: human, human liver microsomes, probe midazolam (hydroxylation to 1′-hydroxymidazolam), 10 μM test compound, midazolam at approximately its Km
T1 construct: pre-incubated with human liver microsomes and NADPH; from tissue; host or cells: human liver microsomes
T1 sequence (P08684 whole entry): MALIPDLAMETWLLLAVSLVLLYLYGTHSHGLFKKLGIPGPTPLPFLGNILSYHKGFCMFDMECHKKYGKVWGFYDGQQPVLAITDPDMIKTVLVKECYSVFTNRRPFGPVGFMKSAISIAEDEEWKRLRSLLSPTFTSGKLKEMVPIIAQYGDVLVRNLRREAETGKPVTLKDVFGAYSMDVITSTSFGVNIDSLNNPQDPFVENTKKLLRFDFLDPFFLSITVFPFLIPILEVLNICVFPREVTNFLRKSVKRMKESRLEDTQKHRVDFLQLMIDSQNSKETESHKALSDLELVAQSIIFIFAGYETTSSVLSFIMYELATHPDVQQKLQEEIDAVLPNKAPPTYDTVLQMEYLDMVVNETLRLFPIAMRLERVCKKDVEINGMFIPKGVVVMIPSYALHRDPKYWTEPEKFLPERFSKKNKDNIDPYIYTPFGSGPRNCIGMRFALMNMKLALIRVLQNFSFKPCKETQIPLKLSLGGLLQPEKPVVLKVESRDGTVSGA
In short: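 Human liver microsomes; CYP3A4 activity as midazolam 1′-hydroxylation with substrate near Km, with or without 10 μM test compound, read as percent inhibition. For time-dependent inhibition, parallel samples were preincubated 30 min with NADPH before substrate, and percent inhibition compared with non-preincubated samples.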

[2] = target: T2, OX1 (Homo sapiens, UniProt O43613); experiment: Orexin receptor cell-based functional assay, [Ca2+]i by FLIPR, CHO-OX1 cells; conditions: CHO-OX1 cells, [Ca2+]i by FLIPR, antagonist dose-range 0.1 nM-10 μM, EC90 of OXA; read-out: OX1
T2 construct: expressed in transfected cells; host or cells: CHO (CHO-OX1, kept under selection antibiotic)
T2 sequence (O43613 1-425): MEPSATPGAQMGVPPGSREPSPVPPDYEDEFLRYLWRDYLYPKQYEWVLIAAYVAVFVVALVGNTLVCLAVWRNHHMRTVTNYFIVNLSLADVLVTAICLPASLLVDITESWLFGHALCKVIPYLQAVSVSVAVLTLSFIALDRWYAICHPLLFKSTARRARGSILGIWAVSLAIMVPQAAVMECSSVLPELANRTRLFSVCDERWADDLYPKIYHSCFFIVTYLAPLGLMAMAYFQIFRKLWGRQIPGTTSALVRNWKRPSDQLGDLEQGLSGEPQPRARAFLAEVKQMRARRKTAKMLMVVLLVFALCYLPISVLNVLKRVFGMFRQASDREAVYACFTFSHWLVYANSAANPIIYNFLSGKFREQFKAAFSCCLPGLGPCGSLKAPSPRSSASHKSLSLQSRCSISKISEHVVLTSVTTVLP
In short: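 CHO cells expressing human OX1 or OX2 loaded with calcium dye plus 2.5 mM probenecid at 37° C (calcium4, 30 min, or calcium6, 2 h), then exposed to compounds (0.1 nM-10 μM) for 30 min. Intracellular Ca2+ measured on FLIPR; antagonist format.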

SMILES	inhibition at 10 µM [1] [%]	pIC50 [2]
Cc1ccc(-n2nccn2)c(C(=O)N2CCC[C@@H](C)[C@H]2CNc2nc3cc(Cl)ccc3o2)n1 [Example A195, ((2S,3R)-2-(((5-Chlorobenzo[d]oxazol-2-yl)amino)methyl)-3-methylpiperidin-1-yl)(6-methyl-3-(2H-1,2,3-triazol-2-yl)pyridin-2-yl)methanone]	57	8.40
COc1ccnc(-c2ccc(C)cc2C(=O)N2CCC[C@@H](C)[C@H]2CNc2ccc(C(F)(F)F)cn2)n1 [Example A21, (2-(4-Methoxypyrimidin-2-yl)-5-methylphenyl)((2S,3R)-3-methyl-2-(((5-(trifluoromethyl)pyridin-2-yl)amino)methyl)piperidin-1-yl)methanone]	89	7.89
Cc1ccc(-n2ncnc2C)c(C(=O)N2CCC[C@@H](C)[C@H]2CNc2ccc(C(F)(F)F)cn2)c1 [Example A16, ((2S,3R)-3-Methyl-2-(((5-(trifluoromethyl)pyridin-2-yl)amino)methyl)piperidin-1-yl)(5-methyl-2-(5-methyl-1H-1,2,4-triazol-1-yl)phenyl)methanone]	96	6.59
Cc1ccc(-n2nccn2)c(C(=O)N2CCC[C@@H](C)[C@H]2CNc2ncc(F)cn2)c1 [Example A171, ((2S,3R)-2-(((5-Fluoropyrimidin-2-yl)amino)methyl)-3-methylpiperidin-1-yl)(5-methyl-2-(2H-1,2,3-triazol-2-yl)phenyl)methanone]	36	6.43
Cc1ccc(-n2nccn2)c(C(=O)N2CCC[C@@H](C)[C@H]2CNc2ncccc2C(F)(F)F)c1 [Example A88, ((2S,3R)-3-Methyl-2-(((3-(trifluoromethyl)pyridin-2-yl)amino)methyl)piperidin-1-yl)(5-methyl-2-(2H-1,2,3-triazol-2-yl)phenyl)methanone]	75	6.22
C[C@@H]1CCCN(C(=O)c2cc(F)ccc2-n2nccn2)[C@@H]1CNc1ncc(Cl)cn1 [Example A221, ((2S,3R)-2-(((5-Chloropyrimidin-2-yl)amino)methyl)-3-methylpiperidin-1-yl)(5-fluoro-2-(2H-1,2,3-triazol-2-yl)phenyl)methanone]	53	7.49
C[C@@H]1CCCN(C(=O)c2cc(F)ccc2-c2ncccn2)[C@@H]1CNc1ncc(C(F)(F)F)cn1 [Example A227, (5-Fluoro-2-(pyrimidin-2-yl)phenyl)((2S,3R)-3-methyl-2-(((5-(trifluoromethyl)pyrimidin-2-yl)amino)methyl)piperidin-1-yl)methanone]	59	8.70
Cc1ccc(-c2ncccn2)c(C(=O)N2CCC[C@@H](C)[C@H]2CNc2ncc(C(F)(F)F)cn2)c1 [Example A212, ((2S,3R)-3-Methyl-2-(((5-(trifluoromethyl)pyrimidin-2-yl)amino)methyl)piperidin-1-yl)(5-methyl-2-(pyrimidin-2-yl)phenyl)methanone]	49	8.30
Cc1ccc(-c2ccccn2)c(C(=O)N2CCC[C@@H](C)[C@H]2CNc2ccc(Cl)cn2)c1 [Example A117, ((2S,3R)-2-(((5-chloropyridin-2-yl)amino)methyl)-3-methylpiperidin-1-yl)(5-methyl-2-(pyridin-2-yl)phenyl)methanone]	92	7.43
C[C@@H]1CCCN(C(=O)c2c(F)cccc2-n2nccn2)[C@@H]1CNc1ncc(C(F)(F)F)cn1 [Example A259, (2-Fluoro-6-(2H-1,2,3-triazol-2-yl)phenyl)((2S,3R)-3-methyl-2-(((5-(trifluoromethyl)pyrimidin-2-yl)amino)methyl)piperidin-1-yl)methanone]	37	8.05
Cc1ccc(-c2ncccn2)c(C(=O)N2CCC[C@@H](C)[C@H]2CNc2ncc(Cl)cc2F)c1 [Example A181, ((2S,3R)-2-(((5-Chloro-3-fluoropyridin-2-yl)amino)methyl)-3-methylpiperidin-1-yl)(5-methyl-2-(pyrimidin-2-yl)phenyl)methanone]	76	8.40
C[C@@H]1CCCN(C(=O)c2c(F)cccc2-c2ncccn2)[C@@H]1CNc1ncc(Cl)cn1 [Example A239, ((2S,3R)-2-(((5-Chloropyrimidin-2-yl)amino)methyl)-3-methylpiperidin-1-yl)(2-fluoro-6-(pyrimidin-2-yl)phenyl)methanone]	50	7.08
C[C@@H]1CCCN(C(=O)c2c(F)cccc2-n2nccn2)[C@@H]1CNc1ncc(Cl)cn1 [Example A260, ((2S,3R)-2-(((5-Chloropyrimidin-2-yl)amino)methyl)-3-methylpiperidin-1-yl)(2-fluoro-6-(2H-1,2,3-triazol-2-yl)phenyl)methanone]	53	7.07
Cc1ccc(-n2ccc(C)n2)c(C(=O)N2CCC[C@@H](C)[C@H]2CNc2nc3cc(Cl)ccc3o2)c1 [Example A115, ((2S,3R)-2-(((5-Chlorobenzo[d]oxazol-2-yl)amino)methyl)-3-methylpiperidin-1-yl)(5-methyl-2-(3-methyl-1H-pyrazol-1-yl)phenyl)methanone]	90	7.80
Cc1ccc(-n2ccc(C)n2)c(C(=O)N2CCC[C@@H](C)[C@H]2CNc2ccc(C(F)(F)F)nn2)c1 [Example A130, ((2S,3R)-3-Methyl-2-(((6-(trifluoromethyl)pyridazin-3-yl)amino)methyl)piperidin-1-yl)(5-methyl-2-(3-methyl-1H-pyrazol-1-yl)phenyl)methanone]	86	7.68
Cc1ccc(-c2cccnc2)c(C(=O)N2CCC[C@@H](C)[C@H]2CNc2ncc(C(F)(F)F)cn2)n1 [Example A223, ((2S,3R)-3-Methyl-2-(((5-(trifluoromethyl)pyrimidin-2-yl)amino)methyl)piperidin-1-yl)(6-methyl-[3,3′-bipyridin]-2-yl)methanone]	93	7.43
Cc1ccc(-n2nccn2)c(C(=O)N2CCC[C@@H](C)[C@H]2CNc2ncc(C(F)(F)F)cc2F)c1 [Example A82, ((2S,3R)-2-(((3-Fluoro-5-(trifluoromethyl)pyridin-2-yl)amino)methyl)-3-methylpiperidin-1-yl)(5-methyl-2-(2H-1,2,3-triazol-2-yl)phenyl)methanone]	68	8.10
Cc1ccc(-c2cnccn2)c(C(=O)N2CCC[C@@H](C)[C@H]2CNc2ccc(C(F)(F)F)cn2)c1 [Example A19, ((2S,3R)-3-Methyl-2-(((5-(trifluoromethyl)pyridin-2-yl)amino)methyl)piperidin-1-yl)(5-methyl-2-(pyrazin-2-yl)phenyl)methanone]	96	8.40
C[C@@H]1CCCN(C(=O)c2cccc(F)c2-c2ncccn2)[C@@H]1CNc1ccc(C(F)(F)F)cn1 [Example A233, (3-Fluoro-2-(pyrimidin-2-yl)phenyl)((2S,3R)-3-methyl-2-(((5-(trifluoromethyl)pyridin-2-yl)amino)methyl)piperidin-1-yl)methanone]	72	8.30
C[C@@H]1CCCN(C(=O)c2ccccc2-c2ncccn2)[C@@H]1CNc1ncc(C(F)(F)F)cn1 [Example A317, ((2S,3R)-3-Methyl-2-(((5-(trifluoromethyl)pyrimidin-2-yl)amino)methyl)piperidin-1-yl)(2-(pyrimidin-2-yl)phenyl)methanone]	46	9.00
Cc1ccc(-n2nccn2)c(C(=O)N2CCC[C@@H](C)[C@H]2CNc2ncc(C#N)cc2F)c1 [Example A148, 5-Fluoro-6-((((2S,3R)-3-methyl-1-(5-methyl-2-(2H-1,2,3-triazol-2-yl)benzoyl)piperidin-2-yl)methyl)amino)nicotinonitrile]	81	7.08
C[C@@H]1CCCN(C(=O)c2cc(Cl)ccc2-c2ncccn2)[C@@H]1CNc1ncc(C(F)(F)F)cn1 [Example A201, (5-Chloro-2-(pyrimidin-2-yl)phenyl)((2S,3R)-3-methyl-2-(((5-(trifluoromethyl)pyrimidin-2-yl)amino)methyl)piperidin-1-yl)methanone]	38	8.40
C[C@@H]1CCCN(C(=O)c2cc(C#N)ccc2-c2ncccn2)[C@@H]1CNc1ncc(C(F)(F)F)cn1 [Example A323, 3-((2S,3R)-3-Methyl-2-(((5-(trifluoromethyl)pyrimidin-2-yl)amino)methyl)piperidine-1-carbonyl)-4-(pyrimidin-2-yl)benzonitrile]	39	8.00
